Measurements taken from the supplement of paper PMC10307832.

Columns and labels:
Assay in all cases: relative viability (nuclei count vs DMSO), 5 days (fraction); higher = more cells survive
AZD8055 + Bortezomib = compound: COc1ccc(-c2ccc3c(N4CCOC[C@@H]4C)nc(N4CCOC[C@@H]4C)nc3n2)cc1CO [AZD8055] + CC(C)C[C@H](NC(=O)[C@H](Cc1ccccc1)NC(=O)c1cnccn1)B(O)O [Bortezomib] (partner 0.002 µM)
How it was run: (§1)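 Cells from lung cancer lines were seeded into 1536-well plates and, one day later, dosed by pin tool. Treatments were either a single drug or a fixed dose of an anchor drug with five library-drug doses (not always all listed) in √10 steps. After 5 days, nuclei were stained in a one-step fixation (final 0.05% Triton X-100, 1% formaldehyde, 1 ug/ml Hoechst) and counted on 4× images, and relative viability is the treated-to-vehicle nuclei ratio, as the median of duplicate plates.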

AZD8055 + Tozasertib = compound: COc1ccc(-c2ccc3c(N4CCOC[C@@H]4C)nc(N4CCOC[C@@H]4C)nc3n2)cc1CO [AZD8055] + Cc1cc(Nc2cc(N3CCN(C)CC3)nc(Sc3ccc(NC(=O)C4CC4)cc3)n2)n[nH]1 [Tozasertib] (partner 0.1 µM)
How it was run: as §1

AZD8055 + AZD7762 = compound: COc1ccc(-c2ccc3c(N4CCOC[C@@H]4C)nc(N4CCOC[C@@H]4C)nc3n2)cc1CO [AZD8055] + NC(=O)Nc1cc(-c2cccc(F)c2)sc1C(=O)N[C@H]1CCCNC1 [AZD7762] (partner 0.2 µM)
How it was run: as §1

AZD8055 + Decitabine = compound: COc1ccc(-c2ccc3c(N4CCOC[C@@H]4C)nc(N4CCOC[C@@H]4C)nc3n2)cc1CO [AZD8055] + Nc1ncn([C@H]2C[C@H](O)[C@@H](CO)O2)c(=O)n1 [Decitabine] (partner 2 µM)
How it was run: as §1

Cell Line	relative viability (AZD8055 + Bortezomib; first compound 0.01 µM)	relative viability (AZD8055 + Bortezomib; first compound 0.03162 µM)	relative viability (AZD8055 + Bortezomib; first compound 0.1 µM)	relative viability (AZD8055 + Bortezomib; first compound 0.3162 µM)	relative viability (AZD8055 + Bortezomib; first compound 1 µM)	relative viability (AZD8055 + Tozasertib; first compound 0.01 µM)	relative viability (AZD8055 + Tozasertib; first compound 0.03162 µM)	relative viability (AZD8055 + Tozasertib; first compound 0.1 µM)	relative viability (AZD8055 + Tozasertib; first compound 0.3162 µM)	relative viability (AZD8055 + Tozasertib; first compound 1 µM)	relative viability (AZD8055 + AZD7762; first compound 0.01 µM)	relative viability (AZD8055 + AZD7762; first compound 0.03162 µM)	relative viability (AZD8055 + AZD7762; first compound 0.1 µM)	relative viability (AZD8055 + AZD7762; first compound 0.3162 µM)	relative viability (AZD8055 + AZD7762; first compound 1 µM)	relative viability (AZD8055 + Decitabine; first compound 0.01 µM)	relative viability (AZD8055 + Decitabine; first compound 0.03162 µM)	relative viability (AZD8055 + Decitabine; first compound 0.1 µM)	relative viability (AZD8055 + Decitabine; first compound 0.3162 µM)	relative viability (AZD8055 + Decitabine; first compound 1 µM)
NCI-H1915	1.09	0.961	1.02	0.663	0.652	0.533	0.433	0.46	0.387	0.35	0.777	0.48	0.686	0.425	0.454	0.272	0.251	0.258	0.254	0.244
NCI-H2009	1.14	0.649	0.845	0.35	0.264	0.763	0.735	0.723	0.535	0.279	–	–	–	–	–	0.376	0.451	0.376	0.305	0.268
BEN	0.663	0.472	0.428	0.365	0.262	0.563	0.48	0.492	0.471	0.345	0.684	0.408	0.41	0.403	0.357	0.691	0.63	0.435	0.49	0.453
PC-14	1.13	1.05	0.737	0.272	0.246	0.834	0.762	0.535	0.109	0.0948	0.458	0.394	0.294	0.147	0.102	0.288	0.227	0.238	0.186	0.159
SK-MES-1	–	–	–	–	–	0.904	0.837	0.625	0.434	0.274	–	–	–	–	–	0.395	0.34	0.333	0.269	0.246
NCI-H727	0.976	0.824	0.698	0.388	0.275	0.849	0.77	0.499	0.414	0.487	0.727	0.574	0.528	0.434	0.338	0.875	0.85	0.736	0.498	0.616
NCI-H1355	1.23	1.06	0.9	0.309	0.315	0.483	0.5	0.399	0.278	0.228	0.856	0.663	0.594	0.288	0.248	0.395	0.335	0.321	0.248	0.231
NCI-H1975	0.409	0.303	0.282	0.206	0.216	0.804	0.619	0.375	0.189	0.178	0.732	0.636	0.466	0.328	0.348	0.458	0.371	0.312	0.238	0.237
LK-2	–	–	–	–	–	0.147	0.133	0.182	0.15	0.154	0.285	0.204	0.205	0.104	0.135	0.273	0.19	0.156	0.146	0.144
